From US9006205B2, “Antisense oligonucleotides against neutral sphingomyelinase and neutral sphingomyelinase inhibitor GW4869 for degenerative neurological disorders” (Rush University Medical Center, priority 2011, dated 2015)

Assays:
primary human neurons [1] = experiment: LDH release from neurons in astrocyte-neuron trans-well; assay type: cell-based
Procedure: (§1) Primary human astrocytes were grown to confluency on inserts. After 24 h of stimulation by the combination of Aβ (1 μM) and IL-Iβ (10 ng/ml), inserts were washed thrice with HBSS and then placed onto the wells containing primary human neurons. Therefore, in this trans-well model, although neurons and astrocytes face each other, they are separable and the effect of soluble factors released from activated astrocytes on neurons can be studied allowing analysis of neuronal and glial populations separately.
The activity of lactate dehydrogenase (LDH) was measured using the direct spectrophotometric assay using an assay kit from Sigma.
(§2) Primary human neurons were incubated with antisense (ASO) and scrambled oligonucleotides (ScO) against N-SMase (A) and A-SMase (FIG. 2B). After 48 h, neurons were analyzed for protein expression of N-SMase and A-SMase. In FIG. 2C, primary human astrocytes seeded in inserts were stimulated by the combination of Aβ and IL-1β as described above. […] After 6 h of treatment with activated astrocytes, apoptotic events in neurons were detected by TUNEL. In FIG. 2D, TUNEL-positive cells were counted manually in four different images of each of three coverslips by three individuals blinded to the experiment. In FIG. 2E, after 18 h of stimulation, cell viability was examined by the metabolism of MTT and the release of LDH. […] Values obtained from the control group served as 100%, and data obtained in other groups were calculated as percent of control accordingly. […]
In FIGS. 3A-3E, primary human astrocytes seeded in inserts were stimulated by the combination of Aβ and IL-Iβ as described above. […] In FIG. 3A, after 1 h, activity of N-SMase was measured in total cell extracts of neurons as described above. […] Values obtained from the control group served as 100%, and data obtained in other groups were calculated as percent of control accordingly. […] Primary human neurons were treated with 25 μM DETA-NONOate (a NO donor) and at different time points of treatment, activities of N-SMase (FIG. 3D) and A-SMase (FIG. 3E) were monitored. ^ap<0.001 vs control (0 h).

primary human neurons [2] = experiment: MTT metabolism of neurons in astrocyte-neuron trans-well; assay type: cell-based
Procedure: as §1
Mitochondrial activity was measured with the 3-(4,5-dimethylthiazol-2-yl)-2,5-diphenyltetrazolium bromide (MTT) assay (Sigma). The cells were grown on 24-well culture plates with 500 μl of medium and treated with various reagents according to the experimental design. At the end of the treatment period, 300 μl of culture medium were removed from each well, and 20 μl of MTT solution (5 mg/ml) were added and incubated for 1 h.
as §2, with “experiment.” for “experiment. In FIG. 2E, after 18 h of stimulation, cell viability was examined by the metabolism of MTT and the release of LDH.”
In FIGS. 3A-3E, primary human astrocytes seeded in inserts were stimulated by the combination of Aβ and IL-Iβ as described above. […] In FIG. 3A, after 1 h, activity of N-SMase was measured in total cell extracts of neurons as described above. […] Values obtained from the control group served as 100%, and data obtained in other groups were calculated as percent of control accordingly.

A-SMase = A-SMase activity in vivo in the cortex after microinjection; design: species or system C57/BL6 mice; settings: pre-microinjection of 1 μg oligonucleotide 24 h before 1 μg fibrillar Aβ1-42
Procedure: (§3) Activities of SMase(s) were assayed as described by. Briefly, after treatment, the cells were washed with PBS, harvested in PBS, divided into two halves, and centrifuged. The fraction for N-SMase was resuspended in buffer A (100 mM Tris-HCl, pH 7.4, 0.1% Triton X-100, 1 mM EDTA, and protease inhibitors), and the cell suspension was sonicated and centrifuged at 500×g at 4° C. for 5 min. The supernatant was used as the enzyme source for N-SMase. The reaction mixture contained enzyme preparation in buffer A containing 5 nmol of [^14C] sphingomyelin, 5 nmol of phosphatidylserine, 5 mM dithiothreitol, and 5 mM MgC¾ in a final volume of 100 μl. Similarly, the fraction for A-SMase was resuspended in buffer B (100 mM sodium acetate, pH 5.0, 0.1% Triton X-100, and protease inhibitors). The cell suspension was sonicated and centrifuged. The supernatant was used as the source of A-SMase. The activity of A-SMase was measured in a 100-μl reaction mixture consisting of the enzyme preparation in buffer B and 5 nmol of [^14C] sphingomyelin. The enzyme reaction was initiated by the addition of 50 μl of substrate and stopped by the addition of 1.5 ml of chloroform:methanol (2:1, v/v) and 0.2 ml of water. After vortexing and phase separation, the aqueous phase was removed for counting.
(§4) Control mice received saline injection. At indicated time points, cortex was dissected out and divided into two halves—one half for measuring activities of N-SMase (FIG. 7B) and A-SMase (FIG. 7C) and the other for assaying ceramide (FIG. 7D). Control (saline—6 h) group served as 100%, and data from other groups were expressed as percentage of control. Results are mean+SD of five different mice (n=5). ^ap<0.05 vs saline—6 h.

[3] = test system: neurons (NeuN-positive cells); experiment: TUNEL/NeuN neuronal apoptosis in vivo in the cortex of Aβ-microinjected mice; settings: 1 μg oligonucleotide 24 h before Aβ; 24 h after final microinjection
iNOS, GFAP and CD11b = experiment: Immunofluorescence of iNOS, GFAP and CD11b in the cortex of Aβ-microinjected mice; assay type: in vivo, C57/BL6 mice; settings: 1 μg oligonucleotide 24 h before Aβ; at both 6 h and 24 h of microinjection
Procedure: […], mice were perfused with 4% paraformaldehyde and their brains were processed for immunohistochemical studies. For double labeling of GFAP with iNOS, sections (6 μm) were incubated with polyclonal anti-GFAP (GFAP: 1000 dilution; Calbiochem) and anti-iNOS (iNOS: 1000 dilution; Calbiochem) for 24 h at 4° C. After three washes in PBST (15 min each), slides were further incubated with Cy5 and Cy2 (Jackson ImmunoResearch Laboratories, Inc.) secondary antibodies for 2 h at room temperature. For negative controls, a set of tissue sections was incubated under similar conditions without the primary antibodies. The samples were mounted and observed under a Bio-Rad MRC1024ES confocal laser scanning microscope.
After 6 h of Aβ microinjection, mice were perfused and double immunofluorescence for GFAP (green) and iNOS (red) (FIG. 8A) and CD 11b (green) and iNOS (red) (FIG. 8B) was performed.

N-SMase [4] = experiment: N-SMase activity in vivo in the cortex after microinjection; design: species or system C57/BL6 mice; settings: pre-microinjection of 1 μg oligonucleotide 24 h before 1 μg fibrillar Aβ1-42
Procedure: as §3, §4

N-SMase [5] = biological target: T1, N-SMase (Homo sapiens, UniProt Q9NY59); experiment: Assay of N-SMase activity in primary human neurons; assay type: cell-based
T1 construct: endogenous in cells; host or cells: primary human neurons
T1 sequence (Q9NY59 1-655): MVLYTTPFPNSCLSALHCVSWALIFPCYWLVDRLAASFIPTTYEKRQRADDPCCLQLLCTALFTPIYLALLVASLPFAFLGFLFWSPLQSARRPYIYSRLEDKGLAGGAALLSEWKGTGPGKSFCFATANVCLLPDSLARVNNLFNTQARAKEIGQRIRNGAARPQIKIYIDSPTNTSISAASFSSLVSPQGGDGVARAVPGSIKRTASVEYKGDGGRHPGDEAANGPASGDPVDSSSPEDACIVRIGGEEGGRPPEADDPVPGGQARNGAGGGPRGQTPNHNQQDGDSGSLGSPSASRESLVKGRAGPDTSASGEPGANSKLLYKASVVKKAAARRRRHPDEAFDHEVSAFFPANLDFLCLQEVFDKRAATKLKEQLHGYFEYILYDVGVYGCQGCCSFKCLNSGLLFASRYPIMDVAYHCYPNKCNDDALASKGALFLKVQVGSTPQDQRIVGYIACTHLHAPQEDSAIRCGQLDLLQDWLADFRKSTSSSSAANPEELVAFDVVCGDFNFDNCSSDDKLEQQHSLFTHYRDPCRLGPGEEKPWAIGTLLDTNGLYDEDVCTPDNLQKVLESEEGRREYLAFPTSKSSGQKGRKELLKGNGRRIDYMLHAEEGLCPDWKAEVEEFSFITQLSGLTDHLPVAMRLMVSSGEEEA
Procedure: as §3
In FIGS. 3A-3E, primary human astrocytes seeded in inserts were stimulated by the combination of Aβ and IL-Iβ as described above. After 24 h, media were removed and inserts were washed and placed on neurons that were pretreated with PTIO for 30 min. In FIG. 3A, after 1 h, activity of N-SMase was measured in total cell extracts of neurons as described above. After 18 h, neuronal viability was examined by the metabolism of MTT (FIG. 3B) and the release of LDH (FIG. 3C). Values obtained from the control group served as 100%, and data obtained in other groups were calculated as percent of control accordingly. Results are mean+S.D. of three different experiments. ^ap<0.001 vs control; ^bp<0.001 vs activated astrocytes. Primary human neurons were treated with 25 μM DETA-NONOate (a NO donor) and at different time points of treatment, activities of N-SMase (FIG. 3D) and A-SMase (FIG. 3E) were monitored. ^ap<0.001 vs control (0 h).

NF-κB = experiment: EMSA of NF-κB DNA-binding activity in primary human astroglia; assay type: cell-based; settings: chemical inhibitor, different concentrations, 30 min preincubation; 1 h of stimulation
primary human astroglia = experiment: NO synthesis (nitrite, Griess reagent) in primary human astroglia; assay type: cell-based; settings: astroglia preincubated 30 min with different concentrations of chemical inhibitor; nitrite after 24 h
Procedure: Synthesis of NO was determined by assay of culture supernatants for nitrite, a stable reaction product of NO with molecular oxygen, using Griess reagent as described.
After 24 h of stimulation, the concentration of nitrite was measured in supernatants (FIG. 4A) by Griess reagent. […] Cells were treated with ASO/ScO for 40 h followed by stimulation with the combination of fibrillar Aβ and IL-Iβ as above. After 6 h, the expression of iNOS mRNA was analyzed by both semi-quantitative RT-PCR (C) and quantitative real-time PCR (FIG. 4D). The expression of TNF-a, IL-6 and IL-Iβ mRNAs were analyzed by semi-quantitative RT-PCR (FIG. 4E). Results are mean±SD of three different experiments. ^ap<0.001 vs control; ^bp<0.001 vs (Aβ+IL-Iβ).

primary human astrocytes = experiment: GFAP and iNOS double-labeling of primary human astrocytes stimulated with Aβ peptides; assay type: cell-based; settings: peptide stimulation for 24 h
Procedure: In FIG. 5A, primary astrocytes were stimulated with fibrillar Aβ1-42, oligomeric Aβ1-42 and reverse peptide Aβ42-1 for 24 h followed by double-labeling of GFAP and iNOS. In FIG. 5B, primary human astrocytes seeded in inserts were stimulated with a combination of I μM of oligomeric Aβ1-42 and 10 ng/ml of IL-Iβ in serum free media. […] After 6 h, neuronal apoptosis was monitored by TUNEL. In FIG. 5C, TUNEL-positive cells were counted manually in four different images of each of three coverslips by three individuals blinded to the experiment. Values obtained from the control group (1) served as 100%, and data obtained from other three groups i.e. the oligomeric Aβ-activated astrocytes (OAA) group (2), the ASO-OAA group (3), and the ScO-OAA group (4) was calculated as percent of control accordingly. Results are mean+S.D. of three different experiments. ^ap<0.001 vs control; ^bp<0.001 vs OAA.

[6] = neurons pretreated with oligonucleotide, 18 h of stimulation
[7] = neurons pretreated with PTIO for 30 min, after 18 h

5′- CACGCGTCCGACGCCGCACGA -3′ (DNA, all phosphorothioate, methylation of C not given here) [ScO against N-SMase, ID; NO.: 13]
LDH release from neurons (primary human neurons [1]; [6]): showed no effect
activated astroglia-mediated loss of MTT metabolism (primary human neurons [2]; [6]): showed no effect

5′-CACGCGTCCGACGCCGCACGA-3′ (DNA CACGCGTCCGACGCCGCACGA; chemistry not given here) [mN-SMase ScO, ScO against mouse N-SMase]
activity of A-SMase in fibrillar Aβ-microinjected cortex (A-SMase): did not influence
Aβ-induced apoptotic death in vivo in the cortex (TUNEL/NeuN) [3]: did not ameliorate
expression of iNOS, GFAP and CD11b in vivo in the cortex of Aβ-microinjected mice (iNOS, GFAP and CD11b): had no effect

5′-CAGCGAGCCGGTCCACCAGCC-3′ (antisense CAGCGAGCCGGTCCACCAGCC; chemistry not given here) [mN-SMase ASO, ID; NO.: 16]
Aβ1-42-induced activation of N-SMase in vivo in the cortex (N-SMase [4]): capable of suppressing
activity of A-SMase in fibrillar Aβ-microinjected cortex (A-SMase): did not influence
Aβ-induced apoptotic death in vivo in the cortex (TUNEL/NeuN) [3]: blocked
expression of iNOS, GFAP and CD11b in vivo in the cortex of Aβ-microinjected mice (iNOS, GFAP and CD11b): dramatically reduced

NCCN(CCN)/[N+]([O-])=N/O [DETA-NONOate]
activation of N-SMase by NO donor alone (N-SMase [5]; primary human neurons, 25 μM, different time points): markedly induced

O=C(/C=C/c1ccc(/C=C/C(=O)Nc2ccc(C3=NCCN3)cc2)cc1)Nc1ccc(C2=NCCN2)cc1 [GW4869]
(Aβ+IL-1β)-induced DNA-binding activity of NF-κB (NF-κB): markedly suppressed
activity of N-SMase (N-SMase [5]; activated astroglia-insulted human neurons, chemical inhibitors): strongly suppressed
(Aβ+IL-1β)-induced production of NO (primary human astroglia): markedly suppressed

CC1(C)N([O])C(c2ccccc2)=[N+]([O-])C1(C)C [PTIO]
ability of activated astrocytes to increase the release of LDH (primary human neurons [1]; [7]): reduced the ability
ability of activated astrocytes to induce the activation of N-SMase (N-SMase [5]; neurons pretreated with PTIO for 30 min, measured after 1 h): reduced the ability
ability of activated astrocytes to decrease MTT metabolism (primary human neurons [2]; [7]): reduced the ability

oligomeric Aβ: Aβ1-42 prepared after incubation at 37° C. for 2 days
astroglial iNOS protein and GFAP (primary human astrocytes): also induced iNOS and upregulated GFAP
